Data taken from patent EP1704862A1, “2,5-bis(tetrahydroxybutyl)pyrazines for the treatment of osteoarthritis and rheumatoid arthritis” (ROTTAPHARM S.P.A., priority 2005, dated 2006).
Read-outs that look alike come from different tables or passages of the source.

Legend:
NO Synthesis [1] = experiment: IL-1β induced NO synthesis in chondrocyte culture (nitrite, DAN fluorometric method); type: cell-based, New Zealand white rabbits; settings: Oryctolagus cuniculus, rabbit articular chondrocytes, stimulation with 0.3 ng/mL of IL-1β, 24 h, read-out: NO Synthesis inhibitory activity IC50
Description: (§1) Inhibitory effects of compounds of this invention were assessed according to the following in vitro assay:
(§2) Normal articular chondrocytes were obtained from young New Zealand white rabbits. Shoulders, femoral heads and knees were detached and transferred under a laminar flow hood. The articular cartilage was removed from the articular surfaces under sterile conditions. Tissue fragments were successively digested in an incubator (37°C, 5% CO2/95% air) with enzymes dissolved in DMEM plus 50 µg/ml gentamicin and sterile filtered. The three-step digestion was carried out with 0.05% testicular hyaluronidase for 15 min, followed by 0.25% trypsin for 30 min, and 0.2% clostridium collagenase for 90 min. […]
NO production by chondrocytes was measured as nitrite, a stable end product and a reliable indicator of NO synthesis. Nitrites released in the culture supernatant were quantified with the fluorometric method according to Misko (Misko TP, Schilling RJ, Salvemini D, Moore WM, Currie MG. Anal Biochem; 214:11-16, 1993). […] The intensity of fluorescence was recorded in a 96-well plate (optiplate, Packard) with a plate reader (HTS7000 plus, Perkin Elmer) with excitation at 360 nm and emission read at 465 nm. Nitrite concentrations were calculated from a standard curve of sodium nitrite ranging from 10 to 100 ng/ml.

Solubility in water = type: physicochemical; settings: pH 7.4, aqueous buffer
PGE2 Synthesis [2] = experiment: IL-1β induced PGE2 synthesis in chondrocyte culture (RIA); type: cell-based, New Zealand white rabbits; settings: Oryctolagus cuniculus, rabbit articular chondrocytes, stimulation with 0.3 ng/mL of IL-1β, 24 h, read-out: PGE2 Synthesis inhibitory activity IC50
Description: as §1
as §2, with “min. At the end of the incubation period, chondrocyte suspension was two-fold diluted with DMEM plus 10% FCS, passed through a 200 µm and a 50 µm nylon sieves to remove debris and undigested matrix particles.” for “min.”
PGE2 released into the culture medium was determined with a RadioImmunoAssay (RIA) performed according to the instructions of the PGE2 antiserum manufacturer (Sigma). […] The supernatant was counted in 7 ml of Ultima-Gold MV® and the amount of radioactivity measured in a Packard Tricarb β-counter. […]

[3] = Metabolic stability in dog liver S9 fraction; type: in vitro ADME; settings: dog liver S9, 1µM, average of two experiments
Description: (§3) Metabolic stability for the compounds of the invention has been assessed using rat, dog and human liver S9 fractions, using the same methods as described in the literature (R Singh et al., Rapid Commun. Mass Spectrom., 10, 9, 1019-26, 1996).
(§4) Permeability and metabolic stability data are the average of two experiments.

[4] = Metabolic stability in rat liver S9 fraction; type: in vitro ADME; settings: rat liver S9, 1µM, average of two experiments
Description: as §3, §4

[5] = Apparent permeability (Papp) across TC-7 cell monolayer; type: in vitro ADME; settings: human, Caco-2; TC-7 cells, pH 6.5/7.4, average of two experiments
Description: The preferred route of administration for the compounds of the invention is oral, therefore the compound should have suitable permeability across the human intestinal epithelia to allow absorption into the circulation. However, also when the parenteral route is chosen for administration, an effective compound must be sufficiently permeable across biological membranes to reach the site/s of action. The permeability of compounds of formula (I) has been assessed in vitro using the apparent permeability coefficients approach (Papp) (Pharmacokinetics Optimization in Drug Research: biological, physicochemical and computational strategies; Bernard Testa, Han van de Waterbeemd, 2001, Wiley). The TC-7 clone was used instead of the Caco-2 cell line for this assessment, since it was reported that the two human intestinal epithelial cell lines are equivalent as far as drug transport characteristics are concerned and thus can be used interchangeably to predict absorption in humans after oral administration (MC Gres et al., Pharm. Res., 15, 5, 726-33, 1998); the experimental work was carried out as described in the mentioned literature.
as §4

[6] = tested on: IL-1β induced GAG release; experiment: IL-1β induced GAG release in chondrocyte culture (DMB assay); type: cell-based, New Zealand white rabbits; settings: Oryctolagus cuniculus, rabbit articular chondrocytes, stimulation with 0.3 ng/mL of IL-1β, 24 h, read-out: GAG Release inhibitory activity IC50
Description: as §1
as §2, with “min. At the end of the incubation period, chondrocyte suspension was two-fold diluted with DMEM plus 10% FCS, passed through a 200 µm and a 50 µm nylon sieves to remove debris and undigested matrix particles.” for “min.”
Proteoglycans associated to cell monolayer were quantified with Dimethylmethylene blue (DMB) assay. […] The absorbance was read within 20 min at 590 nm with a HTS7000plus plate reader. […] The optical density was measured at 590 nm using a plate reader HTS7000plus (Perkin Elmer).

[7] = Metabolic stability in human liver S9 fraction; type: in vitro ADME; settings: human liver S9, 1µM, average of two experiments
Description: as §3, §4

PGE2 Synthesis [8] = settings: Human articular chondrocytes, IL-1β induced; Free Rad.Biol.Med. 33, 1097-1105, 2002; read-out: PGE2 Synthesis inhibitory activity IC50; cited from earlier work
NO Synthesis [9] = settings: Human articular chondrocytes, IL-1β induced; Free Rad.Biol.Med. 33, 1097-1105, 2002; read-out: NO Synthesis inhibitory activity IC50; cited from earlier work
GAG Release = settings: Human articular cartilage, IL-1β induced; JPET, 308, 767-773, 2004; read-out: GAG Release inhibitory activity IC50; cited from earlier work
PGE2 Synthesis [10] = settings: Human chondrocytes, IL-1β induced; Osteoarthritis and Cartilage, 2000, 8(6), 434; read-out: PGE2 Synthesis inhibitory activity IC50; cited from earlier work
NO Synthesis [11] = settings: Bovine articular cartilage, IL-1β induced; Osteoarthritis and Cartilage, 2000, 8(6), 434; read-out: NO Synthesis inhibitory activity IC50; cited from earlier work

## OC[C@@H](O)[C@@H](O)[C@H](O)c1cnc([C@@H](O)[C@H](O)[C@H](O)CO)cn1 [Compound 1.1, Bis-(1R, 1'R, 2S, 2'S, 3R, 3'R)-1,2,3,4-butanetetrol-1,1'-(2,5-pyrazinediyl)]
NO Synthesis [1]
  IC50: 8 µM
Solubility in water
  solubility: ≤ 100 mM
PGE2 Synthesis [2]
  IC50: 4 µM
[3]
  In vitro metabolism Parent remaining (%) Test concentration 1µM Dog: 96%
[4]
  In vitro metabolism Parent remaining (%) Test concentration 1µM Rat: 110%
[5]
  Papp A→B: 113 ×10⁻⁶ cm/s
  Papp B→A: 72.9 ×10⁻⁶ cm/s
[6]
  IC50: 46 µM
[7]
  In vitro metabolism Parent remaining (%) Test concentration 1µM Human: 108%

## O=C(O[C@@H]1Cc2c(O)cc(O)cc2O[C@@H]1c1cc(O)c(O)c(O)c1)c1cc(O)c(O)c(O)c1 [EGCG, epigallocatechin gallate]
PGE2 Synthesis [8]
  IC50: > 200 µM
NO Synthesis [9]
  IC50: ~200 µM
GAG Release
  IC50: ~100 µM

## COc1nccc(-c2c(-c3ccc(F)cc3)ncn2C2CCNCC2)n1 [SB-242235]
PGE2 Synthesis [10]
  IC50: 1000 to 3000 nM
NO Synthesis [11]
  IC50: 1000 nM
